The target in test [1] is Casein kinase I isoform gamma-1 (Homo sapiens, UniProt Q9HCP0).
The target of test [2] is Receptor-interacting serine/threonine-protein kinase 2 (Homo sapiens, UniProt O43353).
For test [3], the target named is GTP-binding nuclear protein Ran (Homo sapiens, UniProt P62826).
Test [4] addresses T1, Receptor-type tyrosine-protein kinase FLT3 (Homo sapiens, UniProt P36888).
T1 sequence (P36888 whole entry): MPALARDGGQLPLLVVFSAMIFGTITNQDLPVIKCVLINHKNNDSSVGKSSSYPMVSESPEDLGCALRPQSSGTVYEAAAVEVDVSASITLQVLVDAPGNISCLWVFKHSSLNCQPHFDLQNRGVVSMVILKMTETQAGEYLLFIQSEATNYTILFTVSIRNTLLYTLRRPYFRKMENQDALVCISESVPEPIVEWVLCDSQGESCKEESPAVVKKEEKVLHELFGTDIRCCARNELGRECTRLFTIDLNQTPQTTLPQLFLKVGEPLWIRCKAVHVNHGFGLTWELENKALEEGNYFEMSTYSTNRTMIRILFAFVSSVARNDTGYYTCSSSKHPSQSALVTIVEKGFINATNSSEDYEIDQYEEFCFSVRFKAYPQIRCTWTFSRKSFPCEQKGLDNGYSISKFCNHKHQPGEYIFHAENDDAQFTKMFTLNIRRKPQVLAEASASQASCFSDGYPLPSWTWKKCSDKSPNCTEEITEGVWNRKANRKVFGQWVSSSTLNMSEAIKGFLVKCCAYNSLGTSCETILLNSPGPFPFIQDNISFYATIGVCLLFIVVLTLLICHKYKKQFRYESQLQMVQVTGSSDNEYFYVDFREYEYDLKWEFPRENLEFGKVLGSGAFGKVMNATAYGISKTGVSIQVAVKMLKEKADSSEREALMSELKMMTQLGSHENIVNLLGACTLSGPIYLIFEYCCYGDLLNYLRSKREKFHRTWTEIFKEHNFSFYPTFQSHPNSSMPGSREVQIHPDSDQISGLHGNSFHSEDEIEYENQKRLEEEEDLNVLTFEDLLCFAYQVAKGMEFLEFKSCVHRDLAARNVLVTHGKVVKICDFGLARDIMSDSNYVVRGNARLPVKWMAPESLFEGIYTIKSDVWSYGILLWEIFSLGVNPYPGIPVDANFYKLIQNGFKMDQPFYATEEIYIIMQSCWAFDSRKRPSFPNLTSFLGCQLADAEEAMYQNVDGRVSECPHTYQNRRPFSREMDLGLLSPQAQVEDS

The target in test [5] is Cyclin-dependent kinase 6 (Homo sapiens, UniProt Q00534).
The target of test [6] is Protein kinase C alpha type (Homo sapiens, UniProt P17252).
For test [7], the target named is Calcium/calmodulin-dependent protein kinase type II subunit delta (Homo sapiens, UniProt Q13557).
For test [8], the target named is Myosin-14 (Homo sapiens, UniProt Q7Z406).
Test [9] concerns the target T2, Peroxisomal acyl-coenzyme A oxidase 3 (Homo sapiens, UniProt O15254).
T2 sequence (O15254 whole entry): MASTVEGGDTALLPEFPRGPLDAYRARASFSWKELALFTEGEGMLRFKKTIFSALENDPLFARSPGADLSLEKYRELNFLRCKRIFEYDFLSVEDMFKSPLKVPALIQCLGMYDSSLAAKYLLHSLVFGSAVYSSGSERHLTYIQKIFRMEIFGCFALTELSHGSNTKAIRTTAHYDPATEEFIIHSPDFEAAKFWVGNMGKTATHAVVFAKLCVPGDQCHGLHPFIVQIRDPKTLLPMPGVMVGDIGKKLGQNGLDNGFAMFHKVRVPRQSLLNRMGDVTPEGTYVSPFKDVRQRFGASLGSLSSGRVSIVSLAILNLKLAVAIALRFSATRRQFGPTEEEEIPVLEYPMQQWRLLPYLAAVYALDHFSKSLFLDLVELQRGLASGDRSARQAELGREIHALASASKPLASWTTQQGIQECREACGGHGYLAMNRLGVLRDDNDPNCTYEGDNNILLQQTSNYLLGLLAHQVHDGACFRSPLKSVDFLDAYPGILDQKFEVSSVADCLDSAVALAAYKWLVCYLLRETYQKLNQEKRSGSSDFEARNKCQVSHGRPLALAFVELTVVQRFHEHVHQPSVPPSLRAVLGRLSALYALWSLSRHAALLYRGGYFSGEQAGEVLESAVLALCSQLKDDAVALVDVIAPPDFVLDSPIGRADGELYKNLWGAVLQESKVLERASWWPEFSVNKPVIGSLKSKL

Test [10] addresses BMP-2-inducible protein kinase (Homo sapiens, UniProt Q9NSY1).
Test [11] addresses Actin-related protein 2 (Homo sapiens, UniProt P61160).
The target in test [12] is T3, Calcium/calmodulin-dependent protein kinase type IV (Homo sapiens, UniProt Q16566).
T3 sequence (Q16566 whole entry): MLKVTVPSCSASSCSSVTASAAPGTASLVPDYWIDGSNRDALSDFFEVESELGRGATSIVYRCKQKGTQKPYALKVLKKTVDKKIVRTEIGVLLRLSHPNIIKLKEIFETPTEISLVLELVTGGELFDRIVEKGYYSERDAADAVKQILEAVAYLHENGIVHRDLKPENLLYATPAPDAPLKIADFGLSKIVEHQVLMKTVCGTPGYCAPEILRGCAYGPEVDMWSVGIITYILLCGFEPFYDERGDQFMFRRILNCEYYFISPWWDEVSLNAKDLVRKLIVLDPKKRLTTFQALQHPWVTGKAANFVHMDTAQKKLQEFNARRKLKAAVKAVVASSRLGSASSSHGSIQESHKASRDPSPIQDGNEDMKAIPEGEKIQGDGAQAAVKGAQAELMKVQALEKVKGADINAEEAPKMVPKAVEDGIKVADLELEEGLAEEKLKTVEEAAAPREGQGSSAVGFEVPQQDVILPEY

For test [13], the target named is Ras-related protein Rab-6A (Homo sapiens, UniProt P20340).

The source made the active and inactive calls. Rule as the data show it, for most assays here: actives have a measured Kd and inactives only a lower limit. A value given as a limit tells only on which side of the number the result lay.
Also: in the data inactive means no Kd found up to 30 µM.

Chain of Cyclin-dependent kinase 6 (Q00534 whole entry): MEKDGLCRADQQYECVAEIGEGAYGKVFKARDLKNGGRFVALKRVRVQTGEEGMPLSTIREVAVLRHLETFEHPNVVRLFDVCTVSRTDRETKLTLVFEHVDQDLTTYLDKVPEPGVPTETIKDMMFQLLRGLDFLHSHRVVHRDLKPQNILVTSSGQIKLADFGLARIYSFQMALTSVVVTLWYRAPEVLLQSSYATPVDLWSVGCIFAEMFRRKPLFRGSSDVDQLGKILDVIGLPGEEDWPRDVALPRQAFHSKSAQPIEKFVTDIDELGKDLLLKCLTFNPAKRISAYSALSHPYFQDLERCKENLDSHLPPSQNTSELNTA
Chain of Calcium/calmodulin-dependent protein kinase type II subunit delta (Q13557 whole entry): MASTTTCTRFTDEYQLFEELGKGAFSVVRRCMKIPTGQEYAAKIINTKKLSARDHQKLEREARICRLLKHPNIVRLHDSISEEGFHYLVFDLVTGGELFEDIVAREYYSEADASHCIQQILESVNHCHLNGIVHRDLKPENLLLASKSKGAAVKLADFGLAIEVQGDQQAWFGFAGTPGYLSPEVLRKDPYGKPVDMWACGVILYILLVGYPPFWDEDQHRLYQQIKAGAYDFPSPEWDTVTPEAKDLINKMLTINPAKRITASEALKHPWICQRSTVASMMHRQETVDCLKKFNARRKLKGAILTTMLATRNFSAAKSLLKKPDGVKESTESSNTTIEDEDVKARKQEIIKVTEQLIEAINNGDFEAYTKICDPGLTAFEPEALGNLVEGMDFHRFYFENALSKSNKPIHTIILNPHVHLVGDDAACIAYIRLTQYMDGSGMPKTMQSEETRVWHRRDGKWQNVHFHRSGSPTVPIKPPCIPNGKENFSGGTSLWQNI
Chain of Casein kinase I isoform gamma-1 (Q9HCP0 whole entry, canonical isoform): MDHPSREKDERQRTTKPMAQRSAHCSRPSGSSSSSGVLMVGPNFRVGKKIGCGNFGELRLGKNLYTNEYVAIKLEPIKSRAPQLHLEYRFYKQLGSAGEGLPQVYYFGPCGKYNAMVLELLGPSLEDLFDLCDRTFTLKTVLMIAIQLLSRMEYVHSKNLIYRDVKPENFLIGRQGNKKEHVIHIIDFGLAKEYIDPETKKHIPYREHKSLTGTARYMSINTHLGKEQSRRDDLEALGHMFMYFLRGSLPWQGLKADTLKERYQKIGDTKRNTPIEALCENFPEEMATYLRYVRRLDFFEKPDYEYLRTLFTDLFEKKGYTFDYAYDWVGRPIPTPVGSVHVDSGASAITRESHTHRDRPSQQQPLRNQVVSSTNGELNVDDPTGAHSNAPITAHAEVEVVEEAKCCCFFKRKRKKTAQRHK
Chain of BMP-2-inducible protein kinase (Q9NSY1 whole entry): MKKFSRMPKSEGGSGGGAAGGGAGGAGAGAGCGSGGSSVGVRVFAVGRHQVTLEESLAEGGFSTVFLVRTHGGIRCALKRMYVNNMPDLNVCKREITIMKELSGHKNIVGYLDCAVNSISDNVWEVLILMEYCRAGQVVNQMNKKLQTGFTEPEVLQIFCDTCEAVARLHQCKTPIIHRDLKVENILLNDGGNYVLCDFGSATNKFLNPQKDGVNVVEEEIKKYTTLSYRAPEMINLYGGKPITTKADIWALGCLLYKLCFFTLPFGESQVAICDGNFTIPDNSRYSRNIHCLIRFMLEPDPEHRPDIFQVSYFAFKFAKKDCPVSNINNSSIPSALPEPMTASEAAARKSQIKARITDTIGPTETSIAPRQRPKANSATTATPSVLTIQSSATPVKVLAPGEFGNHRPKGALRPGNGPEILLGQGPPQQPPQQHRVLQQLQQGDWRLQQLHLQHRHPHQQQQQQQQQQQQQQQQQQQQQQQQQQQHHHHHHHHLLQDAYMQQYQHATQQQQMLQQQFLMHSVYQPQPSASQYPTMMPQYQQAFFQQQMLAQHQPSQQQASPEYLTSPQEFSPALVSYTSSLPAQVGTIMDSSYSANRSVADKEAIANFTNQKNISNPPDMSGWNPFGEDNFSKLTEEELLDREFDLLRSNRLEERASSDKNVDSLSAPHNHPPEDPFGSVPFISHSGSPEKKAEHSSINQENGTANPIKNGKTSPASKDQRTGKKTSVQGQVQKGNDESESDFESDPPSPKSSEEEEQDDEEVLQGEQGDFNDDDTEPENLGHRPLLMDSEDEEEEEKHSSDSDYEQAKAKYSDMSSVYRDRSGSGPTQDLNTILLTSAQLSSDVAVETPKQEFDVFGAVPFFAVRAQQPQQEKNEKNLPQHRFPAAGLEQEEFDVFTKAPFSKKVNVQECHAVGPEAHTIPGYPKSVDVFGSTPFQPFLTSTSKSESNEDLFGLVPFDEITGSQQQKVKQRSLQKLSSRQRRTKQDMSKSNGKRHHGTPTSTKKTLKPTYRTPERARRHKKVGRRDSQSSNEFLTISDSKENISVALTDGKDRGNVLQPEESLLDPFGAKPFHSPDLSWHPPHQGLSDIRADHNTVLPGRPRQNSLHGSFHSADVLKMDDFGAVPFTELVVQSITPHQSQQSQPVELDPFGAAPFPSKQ
Chain of Receptor-interacting serine/threonine-protein kinase 2 (O43353 whole entry): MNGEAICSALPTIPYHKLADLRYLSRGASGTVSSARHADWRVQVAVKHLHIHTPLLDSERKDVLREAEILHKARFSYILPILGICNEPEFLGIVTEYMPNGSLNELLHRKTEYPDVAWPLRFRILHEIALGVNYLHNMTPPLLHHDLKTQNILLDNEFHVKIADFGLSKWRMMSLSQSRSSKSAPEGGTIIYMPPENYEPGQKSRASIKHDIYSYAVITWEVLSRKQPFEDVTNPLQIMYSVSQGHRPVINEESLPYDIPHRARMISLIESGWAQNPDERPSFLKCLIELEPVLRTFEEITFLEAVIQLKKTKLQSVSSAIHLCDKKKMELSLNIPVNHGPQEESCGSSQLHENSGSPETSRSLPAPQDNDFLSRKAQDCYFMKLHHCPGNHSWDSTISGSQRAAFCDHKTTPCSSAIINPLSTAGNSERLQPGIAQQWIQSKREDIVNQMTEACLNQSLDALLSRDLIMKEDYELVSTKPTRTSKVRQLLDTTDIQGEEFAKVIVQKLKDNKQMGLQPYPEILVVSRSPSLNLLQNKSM
Chain of Ras-related protein Rab-6A (P20340 whole entry): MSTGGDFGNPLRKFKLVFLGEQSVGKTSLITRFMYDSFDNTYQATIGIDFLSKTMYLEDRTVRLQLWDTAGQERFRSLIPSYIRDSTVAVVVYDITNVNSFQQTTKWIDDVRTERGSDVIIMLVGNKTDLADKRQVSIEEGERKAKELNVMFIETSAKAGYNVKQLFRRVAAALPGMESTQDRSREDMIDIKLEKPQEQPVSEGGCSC

In general, Kd refers to the concentration at which binding is half-saturated. As for `CNS(=O)(=O)Nc1nccc(Cc2c(C)c3ccc(Oc4ncccn4)cc3oc2=O)c1F` [AVUTOMETINIB], the Kd in test [1], in test [2], in [3], in test [4], in test [5] and in [6] was > 30 µM (inactive) throughout. Moreover, the Kd in [7], in [8], in test [9], in test [10], in test [11] and in test [12] was > 30 µM (inactive) in each case. Also, the Kd in test [13] was > 30 µM (inactive).

As to `COc1ccc(-c2ccc3c(N4CCOC[C@@H]4C)nc(N4CCOC[C@@H]4C)nc3n2)cc1CO` [AZD-8055], the Kd in test [1], in [2], in test [3], in test [4], in test [5] and in test [6] was > 30 µM (inactive) each time. For the same compound, the Kd in [7], in test [8], in [9], in test [10], in test [11] and in test [12] was > 30 µM (inactive) each time. The Kd in test [13] was > 30 µM (inactive).

As to `O=C(O)[C@]1(Cc2cccc(Nc3nccs3)n2)CC[C@@H](Oc2cccc(Cl)c2F)CC1` [MK-5108], the Kd in test [1], in test [2], in test [3], in test [4], in [5] and in [6] was > 30 µM (inactive) each time. The Kd in [7], in [8], in test [9], in test [10], in test [11] and in test [12] was > 30 µM (inactive) throughout. For the same compound, the Kd in [13] was > 30 µM (inactive).

For the compound `CN1CCC(CNc2ccc3ncc(-c4cccc(OC(F)(F)F)c4)n3n2)CC1` [SGI-1776], the Kd was > 30 µM (inactive) in test [1]; > 30 µM (inactive) in test [2]; > 30 µM (inactive) in [3]; 0.143 µM (active) in [4]; > 30 µM (inactive) in test [5]; > 30 µM (inactive) in [6]. Further, the Kd in test [7] is > 30 µM (inactive); in test [8], > 30 µM (inactive); in [9], > 30 µM (inactive); in test [10], 8.53 µM (active); in [11], > 30 µM (inactive); in test [12] it was > 30 µM (inactive). For the same compound, the Kd in test [13] is > 30 µM (inactive).

Turning to `CC(=O)Nc1cccc(-n2c(=O)n(C3CC3)c(=O)c3c(Nc4ccc(I)cc4F)n(C)c(=O)c(C)c32)c1` [TRAMETINIB], the Kd in test [1], in test [2], in test [3], in test [4], in test [5] and in test [6] was > 30 µM (inactive) each time. The Kd in [7], in test [8], in test [9], in test [10], in test [11] and in [12] was > 30 µM (inactive) throughout. The Kd in [13] was > 30 µM (inactive).

In the case of `CCCS(=O)(=O)Nc1ccc(F)c(C(=O)c2c[nH]c3ncc(-c4ccc(Cl)cc4)cc23)c1F` [VEMURAFENIB], the Kd in test [1] is > 30 µM (inactive); in test [2] it was 0.427 µM (active); in [3], > 30 µM (inactive); in test [4], > 30 µM (inactive); in test [5], > 30 µM (inactive); in test [6], > 30 µM (inactive). In addition, the Kd in [7], in test [8], in [9], in [10], in test [11] and in [12] was > 30 µM (inactive) in each case. The Kd in test [13] was > 30 µM (inactive).
